# Laboratory results: US20100130554A1, “USE OF 4-CYCLOPROPYLMETHOXY-N-(3,5-DICHLORO-1-OXIDOPYRIDIN-4-YL)-5-(METHOXY)PYRIDINE-2-CARBOXAMIDE FOR THE TREATMENT OF MOTOR DISORDERS RELATED TO PARKINSON'S DISEASE” (SANOFI-AVENTIS, priority 2007, published 2010)
# Columns and labels:
# [1] = cited from earlier work
# dopamine uptake sites = test: Protection in a model of Parkinson's disease: dopaminergic neuron loss in mice poisoned with MPTP, striatal dopamine uptake sites quantified by GBR12935 binding; assay type: in vivo; conditions: MPTP-poisoned C57BL6 mice, striatum, gavage twice a day for 17 days, MPTP only = 58%, p<0.01 vs MPTP only
# Procedure: The effects of the 4-cyclopropylmethoxy-N-(3,5-dichloro-1-oxidopyridin-4-yl)-5-(methoxy)pyridine-2-carboxamide used according to the invention were evaluated in mice using a model of dopaminergic neuron loss.
# Protection in a Model of Parkinson's disease (Dopaminergic Neuron Loss in Mice Poisoned with MPTP (1-methyl-4-phenyl-1,2,3,6-tetrahydropyridine):
# C57BL6 mice are given 4 intraperitoneal injections of 20 mg/kg of MPTP, each 2 hours apart. The 4-cyclopropylmethoxy-N-(3,5-dichloro-1-oxidopyridin-4-yl)-5-(methoxy)pyridine-2-carboxamide in solution in the carrier (methylcellulose (MC) (0.6%)+Tween-80 (0.5%)) is administered by gavage between the 2nd and 3rd injection of MPTP and just after the final injection of MPTP, and then twice a day for 17 days at the total daily doses of 0.015 and 0.050 mg/kg. Twenty-four hours after the final treatment, the striatum is removed and the dopamine uptake sites are quantified using a GBR12935 (1-[2-(diphenylmethoxy)ethyl]-4-(3-phenylpropyl)piperazine) binding method.
# ferrets = test: Evaluation of the emetic effects in ferrets after oral gavage; assay type: in vivo; conditions: observed up to 6 hours
# Procedure: The emetic capacity of 4-cyclopropylmethoxy-N-(3,5-dichloro-1-oxidopyridin-4-yl)-5-(methoxy)pyridine-2-carboxamide was evaluated in ferrets. Two groups of ferrets were used, the first being given the carrier (PEG200) and the second being given the 4-cyclopropylmethoxy-N-(3,5-dichloro-1-oxidopyridin-4-yl)-5-(methoxy)pyridine-2-carboxamide in solution in the carrier (PEG 200), by oral gavage. The animals were observed continually for 2 hours following administration, and then every hour until 6 hours after administration. The clinical signs (in particular, retching and vomiting) were noted.
# The emetic capacity of (R)-(−)-rolipram was evaluated in the ferrets. Two groups of ferrets were used, the first being given the carrier (PEG200) and the second being given the […] in solution in the carrier (PEG 200), by oral gavage, at doses of 0.05 mg/kg and of 0.1 mg/kg. The animals were observed continually for the 2 hours following administration, and then once an hour up to 6 hours after the administration. The clinical signs were noted.
# [2] = oral gavage in PEG200, 0.1 mg/kg
SMILES,emetic effects in clinical studies [1],"density of the dopamine uptake sites, % of the level observed in the normal animals (dopamine uptake sites; total daily dose 0.015 mg/kg/d)","density of the dopamine uptake sites, % of the level observed in the normal animals (dopamine uptake sites; total daily dose 0.050 mg/kg/d)",emetic effects (retching and vomiting) (ferrets; [2]),"emetic effects (retching and vomiting) (ferrets; oral gavage in PEG200, 0.05 mg/kg)"
COc1ccc(C2CNC(=O)C2)cc1OC1CCCC1 (stereo not drawn) [rolipram],induce emetic effects,–,–,–,–
"COc1cnc(C(=O)Nc2c(Cl)c[n+]([O-])cc2Cl)cc1OCC1CC1 [4-cyclopropylmethoxy-N-(3,5-dichloro-1-oxidopyridin-4-yl)-5-(methoxy)pyridine-2-carboxamide]",–,82%,85%,neither retching nor vomiting,–
"COc1ccc([C@@H]2CNC(=O)C2)cc1OC1CCCC1 [(R)-(−)-rolipram, (4R)-4-[3-(cyclopentyloxy)-4-methoxyphenyl]pyrrolidine-2-one]",–,–,–,induce vomiting,induce vomiting
